# Laboratory results as given in patent US12364672B2, “Esketamine for use in treating major depressive disorder” (priority 2018, dated 2025).
# Legend:
# [1] = test system: human peripheral blood lymphocytes (HPBL)
# [2] = test system: human peripheral blood lymphocytes (HPBL); remark: listed apart in the source
# Method: Toxicity (defined as ≥45% reduction in MI relative to the vehicle control) was evaluated at 9 concentrations, ranging from 0.0238 to 238 μg/ml, after exposure of HPBL to esketamine for 20 hours in the absence of S9 activation, or for 4 hours, either in the presence or absence of S9 activation, followed by a 16-hour recovery period.
# The definitive chromosome aberration assay evaluated HPBL cells after exposure to esketamine for 20 hours in the absence of S9 activation, or for 4 hours, either in the presence of absence of S9 activation, followed by a 16-hour recovery. Positive controls for chromosomal aberrations in non-activated and S9-activated evaluations, respectively, consisted of mitomycin C (MMC, 0.6 and 0.3 μg/mL for the 4- and 20-hour exposures, respectively) and cyclophosphamide (CP, 2.5, 5, and 7.5 μg/mL). […] Initially, the doses selected for evaluation of chromosomal aberrations were 60, 120, and 238 μg/mL for the non-activated 4- and 20-hour treatment conditions; and 30, 60, and 200 μg/mL for the S9-activated 4-hour treatment condition.
# C57Bl/6 strain mice [3] = experiment: Tail suspension test, single dose; assay type: in vivo, mouse; conditions: TST after 30 minutes
# Method: Ketamine and esketamine HCl solutions at dose levels of 7.5, 15 and 30 mg/kg were administered intraperitoneally (ip) to groups of 10 inbred C57Bl/6 strain mice. After 30 minutes animals were exposed to the tail suspension test (TST).
# C57Bl/6 strain mice [4] = experiment: Tail suspension test, 7-day administration; assay type: in vivo, mouse
# Method: Esketamine HCl solutions were administered intraperitoneally (ip) to 8 groups of 10 inbred C57Bl/6 strain mice divided to receive one of the following dose levels for 7 days:
# 1. saline 10 ml/kg ip once prior to TST
# 2. esketamine 15 mg/kg ip once on day 7 prior to TST
# 3. esketamine 30 mg/kg ip once on day 7 prior to TST
# 4. saline 10 ml/kg ip daily for 7-days
# 5. esketamine 7.5 mg/kg ip daily for 7-days
# 6. esketamine 15 mg/kg ip daily for 7-days
# 7. esketamine 30 mg/kg ip once on day 1+saline daily for 6 more days
# 8. esketamine 30 mg/kg ip once on day 1+esketamine 7.5 mg/kg for 6 more days.
# 30 minutes after the last treatment, the animals were exposed to the tail suspension test (TST).
# [5] = test system: healthy male and female subjects; experiment: Single dose crossover study in healthy volunteers, treatment-emergent adverse events; assay type: in vivo, human; conditions: all treatments
# Description: A total of 128 TEAEs (treatment-emergent adverse event) were reported by 15 of 16 (94%) subjects of which 79 TEAEs reported by 14 of 16 (88%) subjects were to be related to the study drug. Overall, a total of 14 of 128 TEAEs reported by 4 (25%) subjects were of moderate severity and 114 of 128 TEAEs reported by 15 (94%) subjects were of mild severity. […] The most frequently occurring adverse events (reported more than twice) were headache, dizziness, hypokinesia, feeling abnormal, fatigue, euphoric mood inappropriate affect, nausea and hyperhidrosis. Table 4 presents the frequency of the most frequently reported related TEAEs as a percentage of the subjects that experienced an adverse effect per treatment.
# liver of Crl:CD(SD) rats = experiment: In vivo single cell gel electrophoresis (comet) assay, liver; conditions: some male animals given 75 mg/kg/day
Compound,Toxicity (mitotic index) [1],Toxicity (≥45% reduction in MI relative to the vehicle control) [2],"cytotoxicity (45% reduction in mitotic index relative to the vehicle control) ([2]; definitive assay, non-activated 4- and 20-hour treatment, any dose (30 to 238 μg/ml))",reduction of immobility time from the saline control group (C57Bl/6 strain mice [3]; 7.5 mg/kg ip) [%],reduction of immobility time from the saline control group (C57Bl/6 strain mice [3]; 15 mg/kg ip) [%],reduction of immobility time from the saline control group (C57Bl/6 strain mice [3]; 30 mg/kg ip) [%],efficacy in the TST vs 7-day saline control group (C57Bl/6 strain mice [4]; 7.5 mg/kg ip daily for 7 days (Group 5)),"decrease in immobility time (C57Bl/6 strain mice [4]; 15 mg/kg ip daily for 7 days (Group 6), not statistically significant) [%]","decrease in immobility time (C57Bl/6 strain mice [4]; 15 mg/kg ip once, acute (printed Group 3), p<0.007) [%]","effect on time spent in immobility (C57Bl/6 strain mice [4]; 30 mg/kg ip once on day 1 + 7.5 mg/kg for 6 more days (Group 8) vs Group 7, p=0.02) [%]",immobility time 7 days after a single injection (C57Bl/6 strain mice [4]; 30 mg/kg ip once on day 1 + saline for 6 more days (Group 7)),severe TEAEs or SAEs [5],liver histopathology (liver of Crl:CD(SD) rats)
"N[C@]1(c2ccccc2Cl)CCCCC1=O [(S)-norketamine, (2S)-2-(2-Chlorophenyl)-2-(amino) cyclohexanone]",not observed,,,,,,,,,,,,
"CN[C@]1(c2ccccc2Cl)CCCCC1=O [esketamine, (2S)-2-(2-Chlorophenyl)-2-(methylamino) cyclohexanone]",,not observed,not observed,27.0,43.6,58.1,did not exert any efficacy,~35,38.9,53.4,no decline in immobility time,No severe TEAEs or SAEs,Increased hepatocellular mitotic figures
"CNC1(c2ccccc2Cl)CCCCC1=O (stereo not drawn) [ketamine, dl 2-(2-chlorophenyl)-2(methylamino) cyclohexanone]",,,,,,71.2,,,,,,,
